Test results: US20140127158A1, “COMBINATION THERAPY FOR HEPATITIS C VIRUS INFECTION” (National Health Research Institute, priority 2012, published 2014)
Read-outs that look alike come from different tables or passages of the source.

Legend:
[1] = system: HCV genotype 2a replicon (JFH1); details: Gao et al., Nature 2010; cited from earlier work
[2] = system: HCV genotype 1b replicon (Con1); details: HCV1b replicon; Gao et al., Nature 2010; cited from earlier work
HCV genotype 1b replicon = assay: Inhibitor combination study (combination index, CalcuSyn); details: at the concentrations used in the combination experiments
[3] = system: HCV genotype 1b replicon (Con1); assay: Inhibitory assay for HCV replicons (luciferase), genotype 1b Con1; assay type: cell-based, Hepatitis C virus; details: HCV-1b replicon cell lines, single agent
Protocol: (2) Cell culture and HCV inhibitors. Huh-7.5 cells and their derivative HCV replicon cell lines were maintained in Dulbecco's modified Eagle's medium (DMEM, Gibco/BRL) that was supplemented with 100 U/mL penicillin-streptomycin (Gibco/BRL), 0.1 mM nonessential amino acid (NEAA, Gibco/BRL) and 10% fetal bovine serum (FBS) heat inactivated at 37° C. in 5% CO2. The HCV replicon cell lines were isolated from colonies as described in Lohman et al., Science 285:110-3 (1999). The culture medium for the replicon cells was additionally supplemented with 0.25 to 0.5 mg/mL of G418, unless specified otherwise. Compound DBPR110 and sofosbuvir were synthesized at the Institute of Biotechnology and Pharmaceutical Research at the National Health Research Institutes in Taiwan. Telaprevir (Lin et al., Antimicrob Agents Chemother, 50:1813-22 (2006)) was purchased from Acme Biosciences (Belmont, Calif.). The compounds were stored at −20° C. as 10 to 500 mM dimethyl sulfoxide (DMSO) stock solutions until the assay. IFN-α was purchased from Calbiochem (La Jolla, Calif.) and stored at −80° C.
(3) Inhibitory assay for HCV replicons. Cells were seeded at 1×10^4 (high-throughput screening assay) or 1×10^5 (regular assay) cells/well in 96- or 12-well plate, respectively, and incubated for 4 h. The medium was then aspirated and replaced with 0.1 (96-well plate) or 1 (12-well plate) mL of complete medium containing a single compound or combinations of compounds in serial concentration(s). The plates with compounds were incubated for 72 h and then assayed for luciferase expression (Promega). The EC50 of each compound was determined independently and used to determine the range of concentrations used for the combination experiments. All data are presented as the means±standard deviations (SD) from three independent experiments. The selectivity index (SI) was calculated as the ratio of the CC50 to the EC50.

Cytotoxicity assay (MTT) = assay type: cell-based; details: human
Protocol: (§1) (4) Cytotoxicity assay. The sensitivity of the cell lines to inhibitors was examined using a 3-(4,5-Dimethylthiazol-2-yl)-2,5-diphenyltetrazolium bromide (MTT) assay. Briefly, Huh-7.5 cells were plated at a density of 1×10^5 cells per well in 12-well plates containing 1 mL of culture medium for 4 h. Serial dilutions of the compounds or DMSO (negative control) were added, and the plates were incubated for an additional 72 h. The MTT reagent was then added to each well, and the plates were incubated for 3 h at 37° C. in a humidified 5% CO2 atmosphere before reading at a wavelength of 563 nm using an ELISA plate reader. All data are presented as the means +/−SD from four independent experiments.

Huh-7.5 cells = assay: Cytotoxicity assay (MTT); assay type: cell-based; details: HCV-1b replicon cell lines; single agent
Protocol: as §1

[4] = Hepatitis C virus, read-out: EC50
[5] = Hepatitis C virus, read-out: EC90
[6] = HCV-1b replicon cell lines, single agent, read-out: CC50

Row | Molecule | EC50 [1] [nM] | EC50 [2] [nM] | cytotoxicity (HCV genotype 1b replicon) | EC50 [3, 4] [nM] | EC90 [3, 5] [nM] | CC50 at 72 h (Cytotoxicity assay (MTT); [6]) [nM] | CC50 at 72 h (Cytotoxicity assay (MTT)) [nM] | EC50 [3] [IU/mL] | EC90 [3] [IU/mL] | CC50 (Huh-7.5 cells)
1 | COC(=O)N[C@H](C(=O)N1CCC[C@H]1c1nc(-c2ccc(-c3ccc(-c4c[nH]c([C@@H]5CCCN5C(=O)[C@@H](NC(=O)OC)C(C)C)n4)cc3)cc2)c[nH]1)C(C)C [BMS-790052] | 0.071 | 0.009 | – | – | – | – | – | – | – | –
2 | CC(C)(C)NC(=O)N[C@H](C(=O)N1C[C@H]2[C@@H]([C@H]1C(=O)NC(CC1CCC1)C(=O)C(N)=O)C2(C)C)C(C)(C)C (stereo partly drawn) [Boceprevir, boceprevir, reference compound] | – | – | No cytotoxicity was observed | 361 ± 19.9 | 962 ± 21.5 | > 5000 | – | – | – | –
3 | NC(=O)c1ncn([C@@H]2O[C@H](CO)[C@@H](O)[C@H]2O)n1 [Ribavirin, ribavirin, reference compound] | – | – | – | 20500 ± 3500 | 95000 ± 20100 | – | > 200000 | – | – | –
4 | CC(C)OC(=O)[C@H](C)N[P@](=O)(OC[C@H]1O[C@@H](n2ccc(=O)[nH]c2=O)[C@](C)(F)[C@@H]1O)Oc1ccccc1 [Sofosbuvir, sofosbuvir, reference compound] | – | – | No cytotoxicity was observed | 91.5 ± 18.3 | 323 ± 66.1 | > 5000 | – | – | – | –
5 | CCC[C@H](NC(=O)[C@@H]1[C@H]2CCC[C@H]2CN1C(=O)[C@@H](NC(=O)[C@@H](NC(=O)c1cnccn1)C1CCCCC1)C(C)(C)C)C(=O)C(=O)NC1CC1 [Telaprevir, telaprevir, reference compound] | – | – | No cytotoxicity was observed | 301.6 ± 2.8 | 912 ± 75.4 | > 5000 | – | – | – | –
6 | IFN-α | – | – | No cytotoxicity was observed | – | – | – | – | 35.1±4.7 | 327.0 ± 0.01 | >2,000 IU/mL
